Experimental data reported in US10743540B2, “3-amino-1,2,4-triazine derivatives and their use for controlling undesired plant growth” (BAYER CROPSCIENCE AKTIENGESELLSCHAFT, priority 2016, dated 2020).

Experiments:
Type in all cases: in vivo
[1] = tested on: STEME: Stellaria media; assay: Post-emergence herbicidal effect; details: application rate 320 g/ha, treated at one-leaf stage, assessed visually after about 3 weeks, 100% = plants have died
Method: (§1) [table] 2. Post-Emergence Herbicidal Effect and Crop Plant Compatibility Seeds of monocotyledonous and dicotyledonous weed and crop plants are laid out in sandy loam soil in wood-fiber pots, covered with soil and cultivated in a greenhouse under good growth conditions. 2 to 3 weeks after sowing, the test plants are treated at the one-leaf stage. The compounds of the invention, formulated in the form of wettable powders (WP) or as emulsion concentrates (EC), are then sprayed onto the green parts of the plants as aqueous suspension or emulsion at a water application rate equating to 600 to 800 L/ha with addition of 0.2% wetting agent. After the test plants have been left to stand in the greenhouse under optimal growth conditions for about 3 weeks, the action of the preparations is assessed visually in comparison to untreated controls (herbicidal action in percent (%): 100% activity=the plants have died, 0% activity=like control plants).

[2] = tested on: VERPE: Veronica persica; assay: Post-emergence herbicidal effect; details: application rate 320 g/ha, treated at one-leaf stage, assessed visually after about 3 weeks, 100% = plants have died
Method: as §1

[3] = tested on: SETVI: Setaria viridis; assay: Pre-emergence herbicidal effect; details: application rate 320 g/ha, scored visually after 3 weeks, 100% = plants have died, 0% = like control plants
Excerpt: (§2) 1. Pre-Emergence Herbicidal Effect and Crop Plant Compatibility Seeds of monocotyledonous and dicotyledonous weed plants and crop plants are laid out in sandy loam soil in wood-fiber pots and covered with soil. The compounds of the invention, formulated in the form of wettable powders (WP) or as emulsion concentrates (EC), are then applied to the surface of the covering soil as aqueous suspension or emulsion at a water application rate equating to 600 to 800 L/ha with addition of 0.2% wetting agent. After the treatment, the pots are placed in a greenhouse and kept under good growth conditions for the trial plants. The damage to the test plants is scored visually after a test period of 3 weeks by comparison with untreated controls (herbicidal activity in percent (%): 100% activity=the plants have died, 0% activity=like control plants). [table]

[4] = tested on: POLCO: Polygonum convolvulus; assay: Pre-emergence herbicidal effect; details: application rate 320 g/ha, scored visually after 3 weeks, 100% = plants have died, 0% = like control plants
Excerpt: as §2

[5] = tested on: STEME: Stellaria media; assay: Pre-emergence herbicidal effect; details: application rate 320 g/ha, scored visually after 3 weeks, 100% = plants have died, 0% = like control plants
Excerpt: as §2

[6] = tested on: VERPE: Veronica persica; assay: Pre-emergence herbicidal effect; details: application rate 320 g/ha, scored visually after 3 weeks, 100% = plants have died, 0% = like control plants
Excerpt: as §2

[7] = tested on: ALOMY: Alopecurus myosuroides; assay: Pre-emergence herbicidal effect; details: application rate 320 g/ha, scored visually after 3 weeks, 100% = plants have died, 0% = like control plants
Excerpt: as §2

[8] = tested on: ECHCG: Echinochloa crus-galli; assay: Pre-emergence herbicidal effect; details: application rate 320 g/ha, scored visually after 3 weeks, 100% = plants have died, 0% = like control plants
Excerpt: as §2

[9] = tested on: LOLMU: Lolium multiflorum; assay: Pre-emergence herbicidal effect; details: application rate 320 g/ha, scored visually after 3 weeks, 100% = plants have died, 0% = like control plants
Excerpt: as §2

[10] = tested on: MATIN: Matricaria inodora; assay: Pre-emergence herbicidal effect; details: application rate 320 g/ha, scored visually after 3 weeks, 100% = plants have died, 0% = like control plants
Excerpt: as §2

[11] = tested on: VIOTR: Viola tricolor; assay: Post-emergence herbicidal effect; details: application rate 320 g/ha, treated at one-leaf stage, assessed visually after about 3 weeks, 100% = plants have died
Method: as §1

[12] = tested on: ABUTH: Abutilon theophrasti; assay: Pre-emergence herbicidal effect; details: application rate 320 g/ha, scored visually after 3 weeks, 100% = plants have died, 0% = like control plants
Excerpt: as §2

[13] = tested on: AMARE: Amaranthus retroflexus; assay: Post-emergence herbicidal effect; details: application rate 320 g/ha, treated at one-leaf stage, assessed visually after about 3 weeks, 100% = plants have died
Method: as §1

N#Cc1nnc(N[C@@H]2CCCc3ccccc32)nc1N [Example 1.37]
Herbicidal activity with respect to [%] STEME [1]: 100% | Herbicidal activity with respect to [%] VERPE [2]: 100% | Herbicidal activity with respect to [%] SETVI [3]: 100% | Herbicidal activity with respect to [%] POLCO [4]: 100% | Herbicidal activity with respect to [%] STEME [5]: 100% | Herbicidal activity with respect to [%] VERPE [6]: 100% | Herbicidal activity with respect to [%] ALOMY [7]: 100% | Herbicidal activity with respect to [%] ECHCG [8]: 100% | Herbicidal activity with respect to [%] LOLMU [9]: 100% | Herbicidal activity with respect to [%] MATIN [10]: 100%

Cc1ccc2c(c1)[C@H](Nc1nnc(C(=O)N(C)C)c(N)n1)CC2 [Example 1.77]
Herbicidal activity with respect to [%] STEME [1]: 100% | Herbicidal activity with respect to [%] VIOTR [11]: 90% | Herbicidal activity with respect to [%] SETVI [3]: 100% | Herbicidal activity with respect to [%] POLCO [4]: 100% | Herbicidal activity with respect to [%] ALOMY [7]: 100% | Herbicidal activity with respect to [%] ECHCG [8]: 100% | Herbicidal activity with respect to [%] ABUTH [12]: 90% | Herbicidal activity with respect to [%] MATIN [10]: 100%

CCOC(=O)c1nnc(N[C@@H]2CCc3ccc(C)cc32)nc1N [Example 1.74]
Herbicidal activity with respect to [%] STEME [1]: 100% | Herbicidal activity with respect to [%] SETVI [3]: 100% | Herbicidal activity with respect to [%] POLCO [4]: 100% | Herbicidal activity with respect to [%] ALOMY [7]: 80% | Herbicidal activity with respect to [%] ECHCG [8]: 100% | Herbicidal activity with respect to [%] MATIN [10]: 100%

Nc1nc(NC2c3ccccc3CC2O)nnc1C(F)(F)F (stereo not drawn) [Example 1.82]
Herbicidal activity with respect to [%] SETVI [3]: 100% | Herbicidal activity with respect to [%] POLCO [4]: 100% | Herbicidal activity with respect to [%] MATIN [10]: 100%

Cc1ccc2c(c1)[C@H](Nc1nnc(C(F)(F)F)c(N)n1)CC2 [Example 1.31]
Herbicidal activity with respect to [%] STEME [1]: 90% | Herbicidal activity with respect to [%] SETVI [3]: 100% | Herbicidal activity with respect to [%] POLCO [4]: 100% | Herbicidal activity with respect to [%] STEME [5]: 100% | Herbicidal activity with respect to [%] VERPE [6]: 100% | Herbicidal activity with respect to [%] ALOMY [7]: 100% | Herbicidal activity with respect to [%] ECHCG [8]: 100% | Herbicidal activity with respect to [%] LOLMU [9]: 100% | Herbicidal activity with respect to [%] MATIN [10]: 100%

Nc1nc(N[C@@H]2CCc3ccccc32)nnc1Cl [Example 1.59]
Herbicidal activity with respect to [%] STEME [1]: 100% | Herbicidal activity with respect to [%] VERPE [2]: 80% | Herbicidal activity with respect to [%] SETVI [3]: 80% | Herbicidal activity with respect to [%] POLCO [4]: 80% | Herbicidal activity with respect to [%] STEME [5]: 100% | Herbicidal activity with respect to [%] VERPE [6]: 100% | Herbicidal activity with respect to [%] ECHCG [8]: 80% | Herbicidal activity with respect to [%] LOLMU [9]: 90%

Cc1ccc2c(c1)[C@H](Nc1nnc(C(=O)NC(C)C)c(N)n1)[C@@H](C)C2 [Example 1.39]
Herbicidal activity with respect to [%] STEME [1]: 80% | Herbicidal activity with respect to [%] VIOTR [11]: 90% | Herbicidal activity with respect to [%] VERPE [2]: 100% | Herbicidal activity with respect to [%] SETVI [3]: 100% | Herbicidal activity with respect to [%] POLCO [4]: 80% | Herbicidal activity with respect to [%] STEME [5]: 100% | Herbicidal activity with respect to [%] VERPE [6]: 100% | Herbicidal activity with respect to [%] ALOMY [7]: 80% | Herbicidal activity with respect to [%] ECHCG [8]: 90% | Herbicidal activity with respect to [%] MATIN [10]: 100%

N#Cc1nnc(NC2CCOc3ccccc32)nc1N (racemic) [Example 1.60]
Herbicidal activity with respect to [%] AMARE [13]: 80% | Herbicidal activity with respect to [%] STEME [1]: 90% | Herbicidal activity with respect to [%] VERPE [2]: 100% | Herbicidal activity with respect to [%] STEME [5]: 100% | Herbicidal activity with respect to [%] VERPE [6]: 100%

Nc1nc(NC2CCCc3cc(F)ccc32)nnc1C(F)(F)F (racemic) [Example 1.46]
Herbicidal activity with respect to [%] STEME [1]: 100% | Herbicidal activity with respect to [%] VERPE [2]: 80% | Herbicidal activity with respect to [%] SETVI [3]: 100% | Herbicidal activity with respect to [%] POLCO [4]: 100% | Herbicidal activity with respect to [%] STEME [5]: 100% | Herbicidal activity with respect to [%] VERPE [6]: 100% | Herbicidal activity with respect to [%] ALOMY [7]: 90% | Herbicidal activity with respect to [%] ECHCG [8]: 100% | Herbicidal activity with respect to [%] LOLMU [9]: 90% | Herbicidal activity with respect to [%] MATIN [10]: 100%

N#Cc1nnc(NC2CCOc3ccc(F)cc32)nc1N (racemic) [Example 1.64]
Herbicidal activity with respect to [%] AMARE [13]: 100% | Herbicidal activity with respect to [%] STEME [1]: 90% | Herbicidal activity with respect to [%] VIOTR [11]: 80% | Herbicidal activity with respect to [%] VERPE [2]: 100% | Herbicidal activity with respect to [%] SETVI [3]: 100% | Herbicidal activity with respect to [%] POLCO [4]: 100% | Herbicidal activity with respect to [%] STEME [5]: 100% | Herbicidal activity with respect to [%] VERPE [6]: 100% | Herbicidal activity with respect to [%] ECHCG [8]: 100% | Herbicidal activity with respect to [%] MATIN [10]: 90%

Nc1nc(N[C@@H]2CCCc3ccccc32)nnc1Cl [Example 1.4]
Herbicidal activity with respect to [%] AMARE [13]: 90% | Herbicidal activity with respect to [%] STEME [1]: 90% | Herbicidal activity with respect to [%] VIOTR [11]: 80% | Herbicidal activity with respect to [%] VERPE [2]: 90% | Herbicidal activity with respect to [%] SETVI [3]: 100% | Herbicidal activity with respect to [%] POLCO [4]: 100% | Herbicidal activity with respect to [%] STEME [5]: 100% | Herbicidal activity with respect to [%] VERPE [6]: 100% | Herbicidal activity with respect to [%] ALOMY [7]: 100% | Herbicidal activity with respect to [%] ECHCG [8]: 100% | Herbicidal activity with respect to [%] LOLMU [9]: 100% | Herbicidal activity with respect to [%] MATIN [10]: 100%

CCOC(=O)c1nnc(N[C@@H]2CCCc3ccccc32)nc1N [Example 1.32, Ethyl 5-amino-3-[(1R)-1,2,3,4-tetrahydronaphthalen-1-ylamino]-1,2,4-triazine-6-carboxylate]
Herbicidal activity with respect to [%] AMARE [13]: 80% | Herbicidal activity with respect to [%] STEME [1]: 80% | Herbicidal activity with respect to [%] VERPE [2]: 80% | Herbicidal activity with respect to [%] SETVI [3]: 90% | Herbicidal activity with respect to [%] STEME [5]: 100% | Herbicidal activity with respect to [%] VERPE [6]: 100% | Herbicidal activity with respect to [%] ECHCG [8]: 100% | Herbicidal activity with respect to [%] MATIN [10]: 100%

CNC(=O)c1nnc(N[C@H]2c3cc(C)ccc3C[C@@H]2C)nc1N [Example 1.41]
Herbicidal activity with respect to [%] AMARE [13]: 80% | Herbicidal activity with respect to [%] VIOTR [11]: 80% | Herbicidal activity with respect to [%] VERPE [2]: 100% | Herbicidal activity with respect to [%] SETVI [3]: 100% | Herbicidal activity with respect to [%] POLCO [4]: 100% | Herbicidal activity with respect to [%] STEME [5]: 100% | Herbicidal activity with respect to [%] VERPE [6]: 100% | Herbicidal activity with respect to [%] ALOMY [7]: 100% | Herbicidal activity with respect to [%] ECHCG [8]: 100% | Herbicidal activity with respect to [%] LOLMU [9]: 100% | Herbicidal activity with respect to [%] MATIN [10]: 100%

Cc1ccc2c(c1)[C@H](Nc1nnc(C(C)O)c(N)n1)[C@@H](C)C2 (stereo partly drawn) [Example 1.103]
Herbicidal activity with respect to [%] STEME [1]: 80% | Herbicidal activity with respect to [%] VIOTR [11]: 90% | Herbicidal activity with respect to [%] VERPE [2]: 90% | Herbicidal activity with respect to [%] POLCO [4]: 100% | Herbicidal activity with respect to [%] STEME [5]: 100% | Herbicidal activity with respect to [%] VERPE [6]: 100% | Herbicidal activity with respect to [%] ECHCG [8]: 100% | Herbicidal activity with respect to [%] MATIN [10]: 100%

C[S+]([O-])c1nnc(N[C@@H]2CCCc3ccccc32)nc1N (stereo partly drawn) [Example 1.65]
Herbicidal activity with respect to [%] STEME [1]: 100% | Herbicidal activity with respect to [%] VIOTR [11]: 80% | Herbicidal activity with respect to [%] VERPE [2]: 80% | Herbicidal activity with respect to [%] SETVI [3]: 100% | Herbicidal activity with respect to [%] POLCO [4]: 100% | Herbicidal activity with respect to [%] STEME [5]: 100% | Herbicidal activity with respect to [%] VERPE [6]: 100% | Herbicidal activity with respect to [%] ECHCG [8]: 100% | Herbicidal activity with respect to [%] ABUTH [12]: 90% | Herbicidal activity with respect to [%] LOLMU [9]: 100% | Herbicidal activity with respect to [%] MATIN [10]: 100%
